From US20030114383A1, “Calcitonin-like sequence expressed by gonadotropes of the anterior pituitary” (priority 2001, published 2003)
Bridges are numbered along the chain shown (N, C = ends). Where no end group is shown, it is not given here.

Experiments:
lactotrope = conditions: rats; cited from earlier work
perifused rat AP cells = conditions: exogenously added; cited from earlier work
GGH3 cells = assay: Two-tier co-culture of CT transfectants with GGH3 cells: PRL release by RIA; type: cell-based, rat; conditions: summary statement
Procedure: Levels of CTI and PRL in the conditioned media of LβT2 cells and CT-transfectants were determined by radioimmunoassay (RIA). The PRL RIA used the reagents provided by the National Institute of Diabetes, Digestive and Kidney diseases (NIDDK), and the assay protocol recommended by the NIDDK was followed. CTI was determined as described previously. All samples from this series of experiments were concurrently run in duplicate in the same RIA. Protein A (IgG Sorb) was used for the separation of bound from free hormone antigen. The experiments were repeated at least three separate times, and data from all the experiments were pooled for statistical analysis.
To further examine the role of pituitary-derived CT in lactotrope function, a two-tier co-culture system was developed where b 1×10^5 LβT2 cells or CT transfectants (CT.U6/A or CT.U6/B) are cultured separately in an upper chamber insert, whereas 2×10^5 GGH3 cells per well (target cells) are cultured in a 12-well plate. […] The conditioned media were analyzed for PRL by RIA. […]
The results on PRL release are expressed as ng PRL released by 100,000 cells over 24 hours. The results on PRL mRNA were digitized, normalized with β-actin mRNA and expressed as normalized densitometric units. […]

Molecule	Inhibition of PRL gene transcription and lactotrope cell proliferation (lactotrope)	PRL release from perifused rat AP cells (perifused rat AP cells)	Secretion of GH, FSH, LH or TSH from perifused rat AP cells (perifused rat AP cells)	Inhibition of prolactin secretion by the pituitary of rats (GGH3 cells)
salmon calcitonin (CSNLSTCVLGKLSQELHKLQTYPRTNTGSGTP-NH2; disulfide 1-7) [SCT, calcitonin-like peptide derived from salmon]	potent inhibitor	significantly attenuates	without altering	–
Pit-CT: anterior pituitary-derived peptide with sequence homology to calcitonin; mature peptide SEQ. ID No. 3 and No. 4 (protein, left off: small tags and cut ends) QDQESPLRKHCLAPSGSPQAELQGTAHQEGIMGFLKFSPFLVVSILLLYQACSLQAVPLRSILGSSPGMATLSEEVRLLAAALVQDYMGMKPRELEQEEEQEAEGSSLDSPRSKRCGNLTTCMLGTYTQDLDLFHTFPQTSIGVEALGGEKGCGQGLGDLPPIPFWQLSSSFSPF	–	–	–	very potent inhibitor
